From patent US20050053921A1, “Systems for screening anti-hepatitis drugs” (priority 2003, published 2005)

Legend:
[1] = tested on: 293P-EG(Δ4AB)SEAP-NS3/4A cells; assay: MTS cellular toxicity assay; type: cell-based; conditions: concentration up to 10 μM
[2] = biological target: NS3/4A protease (Hepatitis C virus genotype 1a, UniProt P27958); assay: cell-based; parameters: species or system HCV type 1a
Method: One of the cloned cell lines was further infected with the lentiviral vector encoding NS 3/4A gene. After zeocin selection (250 μg/ml) for 3 to 4 weeks, one zoscine-resistant clone was obtained. This cell line was confirmed by Western blot to express both NS3/4A protease and EG(D4AB)SEAP, and therefore designated as 293P-EG(Δ4AB)SEAP-NS3/4A.
More specifically, 293P-EG(Δ4AB)SEAP-NS3/4A cells were seeded in 96-well plates (1.5×10^4 cells per well) and cultured at 37° C. overnight. […] Two days later, the culture medium in each well was replaced with fresh phenol red-free DMEM/10% FBS containing the same concentration of drugs. After another day, the culture medium was collected and the SEAP activity was measured using a Phospha-Light assay kit (Tropix, Foster City, Calif., USA) according to manufacturer's instruction.

[3] = biological target: T1, NS3/4A protease in Ava5-EG(Δ4AB)SEAP cells (Hepatitis C virus genotype 1b, UniProt Q9WMX2); assay: SEAP activity in medium of stable Ava5-EG(Δ4AB)SEAP cells; type: cell-based, HCV; conditions: for extracellular SEAP activity: TPCK 0-40 μM or IFN-γ 0-100 I.U./ml
T1 construct: Ava5 cells expressed endogenous NS3/4A protease; endogenous in cells; host or cells: Ava5 cells (Huh-7 carrying an HCV subgenomic replicon)
T1 sequence (Q9WMX2 1027-1657, stated change not applied): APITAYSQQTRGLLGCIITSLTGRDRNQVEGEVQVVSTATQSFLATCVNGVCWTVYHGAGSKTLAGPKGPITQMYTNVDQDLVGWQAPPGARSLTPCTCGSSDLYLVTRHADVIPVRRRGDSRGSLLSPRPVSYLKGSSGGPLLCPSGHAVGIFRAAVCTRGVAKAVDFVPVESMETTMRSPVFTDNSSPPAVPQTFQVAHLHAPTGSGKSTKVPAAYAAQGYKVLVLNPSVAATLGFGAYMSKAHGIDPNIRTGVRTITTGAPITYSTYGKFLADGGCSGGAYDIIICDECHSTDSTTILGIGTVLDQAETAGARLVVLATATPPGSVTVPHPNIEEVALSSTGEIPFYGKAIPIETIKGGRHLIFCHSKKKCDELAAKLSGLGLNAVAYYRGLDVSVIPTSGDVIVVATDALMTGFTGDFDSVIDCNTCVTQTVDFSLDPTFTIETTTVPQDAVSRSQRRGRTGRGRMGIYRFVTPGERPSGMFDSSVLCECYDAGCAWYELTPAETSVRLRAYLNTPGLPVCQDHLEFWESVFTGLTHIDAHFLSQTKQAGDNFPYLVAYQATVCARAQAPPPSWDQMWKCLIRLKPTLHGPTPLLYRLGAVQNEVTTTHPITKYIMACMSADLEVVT
T1 sequence (Q9WMX2 1658-1711, stated change not applied): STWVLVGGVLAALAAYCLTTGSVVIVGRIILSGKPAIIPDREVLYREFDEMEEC
Method: (§1) After the cotransfection, culture media and cell lysates were harvested at 12-hour intervals. The SEAP activity in the culture medium and the β-galactosidase activity in the cell lysates were measured using Phospha-Light and Galacto-Star assay kits (Tropix, Foster, Calif., USA), respectively. The respective chemiluminescent intensities were detected by a Top Counter Microplate Scintillation and Luminescence Counter (Packard, Meriden, Conn., USA). The intensities reflected the relative activities of SEAP and […]. In these experiments, the β-gal activity was used to normalize transfection efficiency according standard techniques. Meanwhile, fluorescence emitted from the green fluorescent protein was examined using a fluorescence microscope (Nikon DIAPHOT 300).
Huh-7 or Ava5 cells were seeded in 24-well plates at a density of 2×10^4 cells per well. After incubation at 37° C. overnight, the cells were transduced with serial dilutions of lentiviral particles in the presence of 6 μg/ml polybrene (Sigma, St. Louis, Mo., USA) in the manner described above. After incubation for 24 hours, the virus-containing medium was replaced by a fresh medium and the cells were incubated for another 2 days. The cells were then selected in the presence of 10 μg/ml of blasticidin for 3-4 weeks.
One blasticidin-resistant Huh-7 clone and two blasticidin-resistant Ava5 clones were obtained. Cell lines thus produced were designated as Huh-7-EG(Δ4AB)SEAP and […], respectively. The cells were then examined for expression of EG(Δ4AB)SEAP and the amount NS3 protein by Western blot analysis using anti-EGFP antibody and anti-NS3 antibody, respectively. […] They also expressed free EGFP, resulting from the cleavage of the EG(Δ4AB)SEAP by NS3/4A protease. In naive Huh-7 and Ava5 cells, neither free EGFP nor NS3 could be detected.
(§2) Ava5-EG(Δ4AB)SEAP clone 1 was further treated by IFN-α (0-50 units/ml) in the manner described above. They, the cells were examined for cellular NS3/4A protein and HCV RNA levels by western blot and dot blot, respectively. The dot blot was conducted as follows: RNA was extracted using TRIZOL reagent (Invitrogen). Three micrograms of RNA was dissolved in 100 μl of TE buffer (10 mM Tris-HCl, 1 mM EDTA, pH 7.5) and 60 μl of 20×SSC, and 40 μl of 37% formaldehyde stock solution were added. The samples were incubated at 60° C. for 15 min and then applied to pre-wetted nylon membrane using an S&S Minifold® I dot-blot device (Schleicher & Schuell GmbH, Relliehausen, Germany). Each well was washed twice with 6×SSC. Bound RNA was immobilized onto the membrane by UV-cross linking (Stratagene, La Jolla, Calif., USA) under the autocross-link condition, then hybridization and counting were conducted as described (Lee et al., 2003. Anal. Biochem.316, 162-170a). The membrane was probed with NS5B gene fragment of HCV labeled with […] by rediprime II random primer labeling system (Amersham Biosciences, Buckinghamshire, England). The blots were visualized by autoradiography and intensities of the blots were measured by densitometry (UVP GDS-8000 BioImaging System, Upland, Calif., USA).
The just-described cell line was used to examined several other known anti-HCV compounds, such as an NS3/4A inhibitor, N-tosyl-1-phenylalanine chloromethyl ketone (TPCK) (Berdichevsky et al., 2003, J. Virol. Methods 107, 245-255.), and IFN-γ (Frese et al., 2002, Hepatology 35, 694-703.). […]

[4] = tested on: HCV subgenomic replicons (HCV RNA); assay: HCV RNA level by Northern hybridization in Ava5 cells expressing EG(Δ4AB)SEAP; type: cell-based; conditions: 100 IU/ml
[5] = tested on: endogenous NS3/4A protease in Ava5 cells; assay: SEAP activity in medium of Ava5 cells transiently transfected with EG(Δ4AB)SEAP; type: cell-based, HCV; conditions: 100 IU/ml
Sequence of endogenous NS3/4A protease in Ava5 cells (Q9WMX2 1027-1657): as the sequence (Q9WMX2 1027-1657, stated change not applied) above
Method: as §1
Ava5 cells expressed endogenous NS3/4A protease. […] Western blotting was also conducted in the same manner.

[6] = tested on: HCV RNA; assay: HCV RNA level by dot blot in Ava5-EG(Δ4AB)SEAP clone 1; type: cell-based; conditions: 0-50 units/ml
Method: as §2

[7] = tested on: HCV NS3 protease; conditions: 100 IU/ml, Ava5 cells, especially after 3 days of treatment
Sequence of HCV NS3 protease (Q9WMX2 1027-1657): as the sequence (Q9WMX2 1027-1657, stated change not applied) above
Method: They were maintained in DMEM/10% FBS/1 mg/ml G418 (Geneticin) and DMEM/10% FBS, respectively. Ava5 cells expressed endogenous NS3/4A protease. The above-described dual-reporter construct was transient transfected into the cells in the same manner descried above except that FuGENE 6 (Roche), instead of LipofectamineTM was used. Western blotting was also conducted in the same manner.
Ava5 cells expressing EG(Δ4AB)SEAP were then tested for the ability to screen for HCV protease inhibitors. More specifically, the cells were treated with IFN-α (Schering-Plough Corp., Kenilworth, N.J., USA) and examined for the SEAP activity in their medium in the manner described above.
The protein level of NS3 protease was also determined by standard techniques.

[8] = tested on: NS3/4A protein; assay: Cellular NS3/4A protein level by western blot in Ava5-EG(Δ4AB)SEAP clone 1; type: cell-based, HCV; conditions: 0-50 units/ml
Sequence of NS3/4A protein (Q9WMX2 1027-1657): as the sequence (Q9WMX2 1027-1657, stated change not applied) above
Method: as §2

[9] = Ava5-EG(Δ4AB)SEAP cells, 72 hours

Sequence of NS3/4A protease (P27958 1027-1657): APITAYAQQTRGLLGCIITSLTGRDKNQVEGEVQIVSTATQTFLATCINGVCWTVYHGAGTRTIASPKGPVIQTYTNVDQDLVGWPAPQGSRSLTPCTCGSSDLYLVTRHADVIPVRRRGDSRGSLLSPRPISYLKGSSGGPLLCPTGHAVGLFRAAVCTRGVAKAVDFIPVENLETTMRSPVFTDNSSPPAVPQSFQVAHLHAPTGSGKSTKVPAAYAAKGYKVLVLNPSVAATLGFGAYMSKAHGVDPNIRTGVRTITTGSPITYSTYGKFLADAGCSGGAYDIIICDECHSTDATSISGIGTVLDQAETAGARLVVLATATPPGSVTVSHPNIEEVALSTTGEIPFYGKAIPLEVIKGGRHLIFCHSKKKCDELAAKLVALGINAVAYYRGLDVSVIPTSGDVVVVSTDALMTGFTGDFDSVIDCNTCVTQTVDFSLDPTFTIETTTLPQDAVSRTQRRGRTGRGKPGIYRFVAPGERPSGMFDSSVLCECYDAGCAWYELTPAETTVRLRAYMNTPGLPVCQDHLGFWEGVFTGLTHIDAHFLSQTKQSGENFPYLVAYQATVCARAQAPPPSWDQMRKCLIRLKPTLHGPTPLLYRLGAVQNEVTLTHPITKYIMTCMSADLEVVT
Sequence of NS3/4A protease (P27958 1658-1711): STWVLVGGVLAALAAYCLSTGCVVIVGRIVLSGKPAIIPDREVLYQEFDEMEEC

## COc1ccc2c(O[C@@H]3C[C@H]4C(=O)N[C@]5(C(=O)O)C[C@H]5/C=C\CCCCC[C@H](NC(=O)OC5CCCC5)C(=O)N4C3)cc(-c3csc(NC(C)C)n3)nc2c1 [BILN-2061]
[1]
  cellular toxicity as measured by MTS assay: did not cause detectable cellular toxicity
[2]
  EC50: ~2 nM

## Cc1ccc(S(=O)(=O)N[C@@H](Cc2ccccc2)C(=O)CCl)cc1 [TPCK, N-tosyl-1-phenylalanine chloromethyl ketone, reference compound]
[3]; [9]
  extracellular SEAP activity: dose-dependent decrease
[3]; at 0.2 μM, Ava5-EG(Δ4AB)SEAP cells, 72 hours
  suppression of HCV replication: more than 50%

## IFN-α
[4]
  RNA levels of gadph (housekeeping gene): remained the same
[4]; especially after 3 days of treatment
  HCV RNA levels: declined
[5]
  SEAP activity in the culture medium: decreased
[6]
  HCV RNA level (dot blot): decreased
[3]; 0-50 units/ml, Ava5-EG(Δ4AB)SEAP clone 1
  SEAP activity in the culture medium: decreased
[7]
  HCV NS3 protease levels: declined
[8]
  cellular NS3/4A protein level (western blot): decreased

B1: IFN-γ: IFN-γ, known anti-HCV compound (Frese et al., 2002) (protein, UniProt P01579 24-161, looked up)
Interferon gamma: QDPYVKEAENLKKYFNAGHSDVADNGTLFLGILKNWKEESDRKIMQSQIVSFYFKLFKNFKDDQSIQKSVETIKEDMNVKFFNSNKKKRDDFEKLTNYSVTDLNVQRKAIHELIQVMAELSPAAKTGKRKRSQMLFRG
[3]; [9]
  extracellular SEAP activity: repressed
[3]; extracellular SEAP activity, Ava5-EG(Δ4AB)SEAP cells, 72 hours
  EC50 (effective concentration for 50% inhibition): below 10 IU/ml
